{"source": "paper PMC4890880", "about": "(ACS infectious diseases, 2016)", "key": {"[1]": {"test_system": "HepG2-A16-CD81EGFP cells", "conditions": "sheet 2nd round; for IC50: read-out: Tox_IC50, HepG2 cytotoxicity; for Tox_max_inhibition (%): maximal inhibition in dose response"}, "[2]": {"test_system": "Plasmodium berghei (Pb-Luc) exoerythrocytic-stage parasites", "conditions": "for normalized signal at concentration 0.000508053 / normalized signal at concentration 0.00152416 / normalized signal at concentration 0.00457247 / normalized signal at concentration 0.0137174 / normalized signal at concentration 0.0411523 / normalized signal at concentration 0.123457 / normalized signal at concentration 0.37037 / normalized signal at concentration 1.11111 / normalized signal at concentration 3.33333 / normalized signal at concentration 10: fraction of control; for IC50: read-out: PbLuc_IC50; for IC50 / PbLuc_max_inhibition (%): sheet 2nd round; for PbLuc_max_inhibition (%): maximal inhibition in dose response"}, "[3]": {"conditions": "second series of columns (replicate)"}}, "note": "Like-named read-outs stand apart in the source and are kept apart here.", "data": [{"smiles": "Cc1noc(C)c1S(=O)(=O)N(C)C[C@H]1OCc2cn(nn2)CCCC(=O)N([C@@H](C)CO)C[C@@H]1C", "note": "[BRD-K72210630-001-02-7]", "values": [{"measurement": "IC50", "setting": "[1]", "result": "> 10", "unit": "µM"}, {"measurement": "Tox_max_inhibition (%)", "setting": "[1]", "result": 5, "unit": "%"}, {"measurement": "normalized signal at concentration 0.000508053", "setting": "[2]; first series of columns", "result": 0.823}, {"measurement": "normalized signal at concentration 0.00152416", "setting": "[2]; first series of columns", "result": 0.7982}, {"measurement": "normalized signal at concentration 0.00457247", "setting": "[2]; first series of columns", "result": 0.9501}, {"measurement": "normalized signal at concentration 0.0137174", "setting": "[2]; first series of columns", "result": 0.8214}, {"measurement": "normalized signal at concentration 0.0411523", "setting": "[2]; first series of columns", "result": 0.9732}, {"measurement": "normalized signal at concentration 0.123457", "setting": "[2]; first series of columns", "result": 0.8751}, {"measurement": "normalized signal at concentration 0.37037", "setting": "[2]; first series of columns", "result": 1.086}, {"measurement": "normalized signal at concentration 1.11111", "setting": "[2]; first series of columns", "result": 0.9189}, {"measurement": "normalized signal at concentration 3.33333", "setting": "[2]; first series of columns", "result": 0.9135}, {"measurement": "normalized signal at concentration 10", "setting": "[2]; first series of columns", "result": 1.047}, {"measurement": "IC50", "setting": "[2]; Pb-Luc exoerythrocytic stage, 10-point dose response, top concentration 10", "result": "> 10", "unit": "µM"}, {"measurement": "normalized signal at concentration 0.000508053", "setting": "[2]; [3]", "result": 1.029}, {"measurement": "normalized signal at concentration 0.00152416", "setting": "[2]; [3]", "result": 0.9027}, {"measurement": "normalized signal at concentration 0.00457247", "setting": "[2]; [3]", "result": 0.8403}, {"measurement": "normalized signal at concentration 0.0137174", "setting": "[2]; [3]", "result": 1.03}, {"measurement": "normalized signal at concentration 0.0411523", "setting": "[2]; [3]", "result": 0.8593}, {"measurement": "normalized signal at concentration 0.123457", "setting": "[2]; [3]", "result": 1}, {"measurement": "normalized signal at concentration 0.37037", "setting": "[2]; [3]", "result": 0.7692}, {"measurement": "normalized signal at concentration 1.11111", "setting": "[2]; [3]", "result": 0.8393}, {"measurement": "normalized signal at concentration 3.33333", "setting": "[2]; [3]", "result": 0.8793}, {"measurement": "normalized signal at concentration 10", "setting": "[2]; [3]", "result": 0.8029}, {"measurement": "PbLuc_max_inhibition (%)", "setting": "[2]", "result": 23, "unit": "%"}]}, {"smiles": "C[C@@H]1CCCCO[C@@H](CN(C)S(=O)(=O)c2ccc(F)cc2)[C@@H](C)CN([C@H](C)CO)C(=O)c2cc(N(C)C)ccc2O1", "note": "[BRD-K46014293-001-01-6]", "values": [{"measurement": "IC50", "setting": "[1]", "result": "> 10", "unit": "µM"}, {"measurement": "Tox_max_inhibition (%)", "setting": "[1]", "result": 15, "unit": "%"}, {"measurement": "normalized signal at concentration 10", "setting": "[2]; first series of dose-response columns", "result": 1.08}, {"measurement": "normalized signal at concentration 0.000508053", "setting": "[2]; first series", "result": 0.75}, {"measurement": "normalized signal at concentration 0.00152416", "setting": "[2]; first series", "result": 0.85}, {"measurement": "normalized signal at concentration 0.00457247", "setting": "[2]; first series", "result": 0.95}, {"measurement": "normalized signal at concentration 0.0137174", "setting": "[2]; first series", "result": 0.77}, {"measurement": "normalized signal at concentration 0.0411523", "setting": "[2]; first series", "result": 0.97}, {"measurement": "normalized signal at concentration 0.123457", "setting": "[2]; first series", "result": 1.05}, {"measurement": "normalized signal at concentration 0.37037", "setting": "[2]; first series", "result": 1.10}, {"measurement": "normalized signal at concentration 1.11111", "setting": "[2]; first series", "result": 1.01}, {"measurement": "normalized signal at concentration 3.33333", "setting": "[2]; first series", "result": 0.87}, {"measurement": "IC50", "setting": "[2]; Broad compounds, dose response", "result": "> 10", "unit": "µM"}, {"measurement": "normalized signal at concentration 10", "setting": "[2]; second series of dose-response columns", "result": 0.93}, {"measurement": "normalized signal at concentration 0.000508053", "setting": "[2]; second series", "result": 1.07}, {"measurement": "normalized signal at concentration 0.00152416", "setting": "[2]; second series", "result": 0.98}, {"measurement": "normalized signal at concentration 0.00457247", "setting": "[2]; second series", "result": 0.95}, {"measurement": "normalized signal at concentration 0.0137174", "setting": "[2]; second series", "result": 0.98}, {"measurement": "normalized signal at concentration 0.0411523", "setting": "[2]; second series", "result": 0.94}, {"measurement": "normalized signal at concentration 0.123457", "setting": "[2]; second series", "result": 1.10}, {"measurement": "normalized signal at concentration 0.37037", "setting": "[2]; second series", "result": 1.03}, {"measurement": "normalized signal at concentration 1.11111", "setting": "[2]; second series", "result": 0.83}, {"measurement": "normalized signal at concentration 3.33333", "setting": "[2]; second series", "result": 0.91}, {"measurement": "PbLuc_max_inhibition (%)", "setting": "[2]", "result": 25, "unit": "%"}]}]}
